Measurements as given in patent US10406207B2, “Peptide conjugates of GLP-1 receptor agonists and gastrin and their use” (priority 2010, dated 2019).
Bridge positions count the residues as written; N and C are the ends. Square brackets hold non-standard residues; d marks the D form. Peptide text beside a SMILES is read from it. AEEA = NCCOCCOCC(=O)O

Key:
human GLP-1 R = biological target: T1, human GLP-1 R (Homo sapiens, UniProt P43220); assay: Human GLP-1 receptor efficacy assay (cAMP induction, FlashPlate); format: cell-based; settings: Table 2; read-out: hGLP-1 R EC50
T1 construct: expressed in transfected cells
Description: On the day of analysis, growth medium was removed and the cells were washed once with 200 μl Tyrode buffer [Tyrode's Salts (9.6 g/l), 10 mM HEPES, pH 7.4]. […] The reaction was stopped by addition of 25 μl 0.5 M HCl and incubated on ice for 60 min.

human CCK-B R = biological target: T2, human CCK-B R (Homo sapiens, UniProt P32239); assay: Human CCK-B receptor efficacy assay (AlphaScreen SureFire p-ERK); format: cell-based; settings: Table 2; read-out: hCCK-B R EC50
T2 construct: expressed in transfected cells
T2 sequence (P32239 1-447): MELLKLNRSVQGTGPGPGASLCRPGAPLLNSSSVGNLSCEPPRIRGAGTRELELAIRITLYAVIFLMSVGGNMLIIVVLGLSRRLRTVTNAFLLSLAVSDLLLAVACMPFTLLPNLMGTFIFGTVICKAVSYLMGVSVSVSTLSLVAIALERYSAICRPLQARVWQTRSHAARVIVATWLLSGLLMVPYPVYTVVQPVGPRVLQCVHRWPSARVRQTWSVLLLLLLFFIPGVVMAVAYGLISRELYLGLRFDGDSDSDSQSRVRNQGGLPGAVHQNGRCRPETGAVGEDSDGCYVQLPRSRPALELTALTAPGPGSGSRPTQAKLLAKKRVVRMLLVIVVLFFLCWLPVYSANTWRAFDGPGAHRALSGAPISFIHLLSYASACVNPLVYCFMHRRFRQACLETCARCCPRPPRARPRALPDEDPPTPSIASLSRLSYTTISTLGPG

in vivo = assay: in vivo; set-up: species or system C57Bl mice; settings: mouse, sc, 100 nmol/kg; for half-life: C57Bl
Description: Two C57Bl mice were given a single subcutaneous dose of 100 nmol/kg of each peptide. […] At each time point, samples from two mice were taken. Plasma samples were analyzed after solid phase extraction (SPE) by liquid chromatography mass spectrometry (LC-MS/MS).

T1 sequence (P43220 24-463): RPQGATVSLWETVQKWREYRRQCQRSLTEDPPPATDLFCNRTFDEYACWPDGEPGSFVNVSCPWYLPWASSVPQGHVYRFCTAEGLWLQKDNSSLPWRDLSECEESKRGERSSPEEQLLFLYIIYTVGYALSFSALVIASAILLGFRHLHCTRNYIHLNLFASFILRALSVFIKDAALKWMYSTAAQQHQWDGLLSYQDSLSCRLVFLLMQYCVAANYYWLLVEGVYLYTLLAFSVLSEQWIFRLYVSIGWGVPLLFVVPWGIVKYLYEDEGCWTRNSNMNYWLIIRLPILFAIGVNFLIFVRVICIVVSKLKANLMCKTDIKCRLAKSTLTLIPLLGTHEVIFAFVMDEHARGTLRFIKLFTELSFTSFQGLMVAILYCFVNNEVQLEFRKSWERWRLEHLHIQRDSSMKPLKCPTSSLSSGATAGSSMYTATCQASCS

Structure (SMILES) | EC50 (human GLP-1 R) [nM] | EC50 (human CCK-B R) [nM] | half-life (in vivo) [h] | Half-life and exposure (in words) (in vivo)
CC[C@H](C)[C@H](NC(=O)[C@H](Cc1ccccc1)NC(=O)[C@H](CC(C)C)NC(=O)[C@H](CCCNC(=N)N)NC(=O)[C@@H](NC(=O)[C@H](C)NC(=O)[C@H](CCC(=O)O)NC(=O)[C@H](CCC(=O)O)NC(=O)[C@H](CCC(=O)O)NC(=O)[C@H](CC(C)C)NC(=O)[C@H](Cc1ccc(O)cc1)NC(=O)[C@H](CCCCN)NC(=O)[C@H](CO)NC(=O)[C@H](CC(C)C)NC(=O)[C@H](CC(=O)O)NC(=O)[C@H](CO)NC(=O)[C@@H](NC(=O)[C@H](Cc1ccccc1)NC(=O)[C@@H](NC(=O)CNC(=O)[C@H](CCC(=O)O)NC(=O)CNC(=O)[C@@H](N)Cc1c[nH]cn1)[C@@H](C)O)[C@@H](C)O)C(C)C)C(=O)N[C@@H](CCC(=O)O)C(=O)N[C@@H](Cc1c[nH]c2ccccc12)C(=O)N[C@@H](CC(C)C)C(=O)N[C@@H](CCCCN)C(=O)NCCOCCOCC(=O)NCCOCCOCC(=O)N[C@@H](Cc1ccc(O)cc1)C(=O)NCC(=O)N[C@@H](Cc1c[nH]c2ccccc12)C(=O)N[C@@H](CC(C)C)C(=O)N[C@@H](CC(=O)O)C(=O)N[C@@H](Cc1ccccc1)C(N)=O [Compound 74, [Tyr13,Leu14]Exendin-4(1-27)-Peg3-Peg3-[Leu4]Gastrin6] (H-HGEGTFTSDLSKYLEEEAVRLFIEWLK[AEEA][AEEA]YGWLDF-NH2) | 0.05 | 8.4 | 3.6 | superior to the rest
CC[C@H](C)[C@H](NC(=O)[C@H](Cc1ccccc1)NC(=O)[C@H](CC(C)C)NC(=O)[C@H](CCCNC(=N)N)NC(=O)[C@@H](NC(=O)[C@H](C)NC(=O)[C@H](CCC(=O)O)NC(=O)[C@H](CCC(=O)O)NC(=O)[C@H](CCC(=O)O)NC(=O)[C@H](CCSC)NC(=O)[C@H](Cc1ccc(O)cc1)NC(=O)[C@H](CCCCN)NC(=O)[C@H](CO)NC(=O)[C@H](CC(C)C)NC(=O)[C@H](CC(=O)O)NC(=O)[C@H](CO)NC(=O)[C@@H](NC(=O)[C@H](Cc1ccccc1)NC(=O)[C@@H](NC(=O)CNC(=O)[C@H](CCC(=O)O)NC(=O)CNC(=O)[C@@H](N)Cc1c[nH]cn1)[C@@H](C)O)[C@@H](C)O)C(C)C)C(=O)N[C@@H](CCC(=O)O)C(=O)N[C@@H](Cc1ccccc1)C(=O)N[C@@H](CC(C)C)C(=O)N[C@@H](CCCCN)C(=O)NCCOCCOCC(=O)NCCOCCOCC(=O)N[C@@H](Cc1ccc(O)cc1)C(=O)NCC(=O)N[C@@H](Cc1c[nH]c2ccccc12)C(=O)N[C@@H](CC(C)C)C(=O)N[C@@H](CC(=O)O)C(=O)N[C@@H](Cc1ccccc1)C(N)=O [Compound 75, [Tyr13,Phe25]Exendin-4(1-27)-Peg3-Peg3-[Leu4]Gastrin6] (H-HGEGTFTSDLSKYMEEEAVRLFIEFLK[AEEA][AEEA]YGWLDF-NH2) | 0.035 | 8.4 | 2.5 | –
CC[C@H](C)[C@H](NC(=O)[C@H](Cc1ccccc1)NC(=O)[C@H](CC(C)C)NC(=O)[C@@H]1CCCCNC(=O)CC[C@H](NC(=O)[C@H](CCC(=O)O)NC(=O)[C@H](CCSC)NC(=O)[C@H](CCC(N)=O)NC(=O)[C@H](CCCCN)NC(=O)[C@H](CO)NC(=O)[C@H](CC(C)C)NC(=O)[C@H](CC(=O)O)NC(=O)[C@H](CO)NC(=O)[C@@H](NC(=O)[C@H](Cc2ccccc2)NC(=O)[C@@H](NC(=O)CNC(=O)[C@H](CCC(=O)O)NC(=O)CNC(=O)[C@@H](N)Cc2c[nH]cn2)[C@@H](C)O)[C@@H](C)O)C(=O)N[C@@H](CCC(=O)O)C(=O)N[C@@H](C)C(=O)N[C@@H](C(C)C)C(=O)N1)C(=O)N[C@@H](CCC(=O)O)C(=O)N[C@@H](Cc1c[nH]c2ccccc12)C(=O)N[C@@H](CC(C)C)C(=O)N[C@@H](CCCCN)C(=O)N[C@@H](CC(N)=O)C(=O)NCCOCCOCC(=O)NCCOCCOCC(=O)N[C@@H](Cc1ccc(O)cc1)C(=O)NCC(=O)N[C@@H](Cc1c[nH]c2ccccc12)C(=O)N[C@@H](CC(C)C)C(=O)N[C@@H](CC(=O)O)C(=O)N[C@@H](Cc1ccccc1)C(N)=O [Compound 79, Side chain-cyclo([Glu16,Lys20]Exendin-4(1-28)-Peg3-Peg3-[Leu4]Gastrin6] (H-HGEGTFTSDLSKQMEEEAVKLFIEWLKN[AEEA][AEEA]YGWLDF-NH2; lactam 16-20) | 0.026 | – | 1.5 | –
CC[C@H](C)[C@@H]1NC(=O)[C@H](Cc2ccccc2)NC(=O)[C@H](CC(C)C)NC(=O)[C@@H](NC(=O)[C@@H](NC(=O)[C@H](C)NC(=O)[C@H](CCC(=O)O)NC(=O)[C@H](CCC(=O)O)NC(=O)[C@H](CCC(=O)O)NC(=O)[C@H](CCSC)NC(=O)[C@H](CCC(N)=O)NC(=O)[C@H](CCCCN)NC(=O)[C@H](CO)NC(=O)[C@H](CC(C)C)NC(=O)[C@H](CC(=O)O)NC(=O)[C@H](CO)NC(=O)[C@@H](NC(=O)[C@H](Cc2ccccc2)NC(=O)[C@@H](NC(=O)CNC(=O)[C@H](CCC(=O)O)NC(=O)CNC(=O)[C@@H](N)Cc2c[nH]cn2)[C@@H](C)O)[C@@H](C)O)C(C)C)CCCCNC(=O)CC[C@@H](C(=O)N[C@@H](Cc2c[nH]c3ccccc23)C(=O)N[C@@H](CC(C)C)C(=O)N[C@@H](CCCCN)C(=O)N[C@@H](CC(N)=O)C(=O)NCCOCCOCC(=O)NCCOCCOCC(=O)N[C@@H](Cc2ccc(O)cc2)C(=O)NCC(=O)N[C@@H](Cc2c[nH]c3ccccc23)C(=O)N[C@@H](CC(C)C)C(=O)N[C@@H](CC(=O)O)C(=O)N[C@@H](Cc2ccccc2)C(N)=O)NC1=O [Compound 80, Side chain-cyclo([Lys20,Glu24]Exendin-4(1-28)-Peg3-Peg3-[Leu4]Gastrin6] (H-HGEGTFTSDLSKQMEEEAVKLFIEWLKN[AEEA][AEEA]YGWLDF-NH2; lactam 20-24) | 0.032 | 4 | 1.9 | –
